Converted amounts (≈) assume the structure as drawn.
How the values were obtained:
Experiment in all cases: in vitro antibacterial evaluation, MIC by broth dilution
Type in all cases: cell-based
Enterococcus sp. = conditions: broth dilution, 18 hours at 35° C.
In short: (§1)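 Following National Committee for Clinical Laboratory Standards recommendations (M7-A2), susceptibility was measured by dilution in Muller-Hinton II […]. Bacteria were seeded at 5×10^5 CFU/mL against compound concentrations from 64 down to 0.06 μg/mL.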

Escherichia coli = conditions: 18 hours at 35° C.
In short: as §1

Staphylococcus sp. = conditions: broth dilution, 18 hours at 35° C.
In short: as §1

Streptococcus sp. = conditions: broth dilution, 18 hours at 35° C.
In short: as §1

- MIC Enterococcus avium (GC 4558) (Enterococcus sp.; Enterococcus avium (GC 4558)): 8 µg/mL (≈ 5.59 µM)
- MIC Enterococcus faecalis (ATCC 29212) (Enterococcus sp.; Enterococcus faecalis (ATCC 29212)): 8 µg/mL (≈ 5.59 µM)
- MIC Enterococcus faecalis (GC 2242) (Enterococcus sp.; Enterococcus faecalis (GC 2242)): 8 µg/mL (≈ 5.59 µM)
- MIC Enterococcus faecalis (GC 2691) (Enterococcus sp.; Enterococcus faecalis (GC 2691)): 8 µg/mL (≈ 5.59 µM)
- MIC Enterococcus faecalis (GC 3059) (Enterococcus sp.; Enterococcus faecalis (GC 3059)): 8 µg/mL (≈ 5.59 µM)
- MIC Enterococcus faecalis (GC 4552) (Enterococcus sp.; Enterococcus faecalis (GC 4552)): 8 µg/mL (≈ 5.59 µM)
- MIC Enterococcus faecalis (GC 4553) (Enterococcus sp.; Enterococcus faecalis (GC 4553)): 8 µg/mL (≈ 5.59 µM)
- MIC Enterococcus faecalis (GC 4554) (Enterococcus sp.; Enterococcus faecalis (GC 4554)): 8 µg/mL (≈ 5.59 µM)
- MIC Enterococcus faecalis (GC 6189) (Enterococcus sp.; Enterococcus faecalis (GC 6189)): 8 µg/mL (≈ 5.59 µM)
- MIC Enterococcus faecium (GC 2243) (Enterococcus sp.; Enterococcus faecium (GC 2243)): 8 µg/mL (≈ 5.59 µM)
- MIC Enterococcus faecium (GC 4556) (Enterococcus sp.; Enterococcus faecium (GC 4556)): 8 µg/mL (≈ 5.59 µM)
- MIC Enterococcus faecium (GC 4557) (Enterococcus sp.; Enterococcus faecium (GC 4557)): 8 µg/mL (≈ 5.59 µM)
- MIC Enterococcus faecalis (ATCC 29212) (Enterococcus sp.; strain ATCC 29212): 8 µg/mL (≈ 5.59 µM)
- MIC Enterococcus faecalis (GC 2242) (Enterococcus sp.; strain GC 2242): 8 µg/mL (≈ 5.59 µM)
- MIC Enterococcus faecium (GC 2243) (Enterococcus sp.; strain GC 2243): 8 µg/mL (≈ 5.59 µM)
- MIC Enterococcus faecalis (GC 2691) (Enterococcus sp.; strain GC 2691): 8 µg/mL (≈ 5.59 µM)
- MIC Enterococcus faecalis (GC 3059) (Enterococcus sp.; strain GC 3059): 8 µg/mL (≈ 5.59 µM)
- MIC Enterococcus faecalis (GC 4552) (Enterococcus sp.; strain GC 4552): 8 µg/mL (≈ 5.59 µM)
- MIC Enterococcus faecalis (GC 4553) (Enterococcus sp.; strain GC 4553): 8 µg/mL (≈ 5.59 µM)
- MIC Enterococcus faecalis (GC 4554) (Enterococcus sp.; strain GC 4554): 8 µg/mL (≈ 5.59 µM)
- MIC Enterococcus faecium (GC 4556) (Enterococcus sp.; strain GC 4556): 8 µg/mL (≈ 5.59 µM)
- MIC Enterococcus faecium (GC 4557) (Enterococcus sp.; strain GC 4557): 8 µg/mL (≈ 5.59 µM)
- MIC Enterococcus avium (GC 4558) (Enterococcus sp.; strain GC 4558): 8 µg/mL (≈ 5.59 µM)
- MIC Enterococcus faecalis (GC 6189) (Enterococcus sp.; strain GC 6189): 8 µg/mL (≈ 5.59 µM)
- MIC Escherichia coli (ATCC 25922) (Escherichia coli; strain ATCC 25922): 64 µg/mL (≈ 44.7 µM)
- MIC Escherichia coli (GC 4559) (Escherichia coli; strain GC 4559): 64 µg/mL (≈ 44.7 µM)
- MIC Escherichia coli (GC 4560) (Escherichia coli; strain GC 4560): 8 µg/mL (≈ 5.59 µM)
- MIC Staphylococcus aureus (ATCC 29213) (Staphylococcus sp.): 8 µg/mL (≈ 5.59 µM)
- MIC Staphylococcus aureus (GC 1131) (Staphylococcus sp.): 8 µg/mL (≈ 5.59 µM)
- MIC Staphylococcus aureus (GC 3051) (Staphylococcus sp.): 8 µg/mL (≈ 5.59 µM)
- MIC Staphylococcus aureus (GC 3053) (Staphylococcus sp.): 8 µg/mL (≈ 5.59 µM)
- MIC Staphylococcus aureus (GC 4541) (Staphylococcus sp.): 8 µg/mL (≈ 5.59 µM)
- MIC Staphylococcus aureus (GC 4542) (Staphylococcus sp.): 8 µg/mL (≈ 5.59 µM)
- MIC Staphylococcus aureus (GC 4544) (Staphylococcus sp.): 8 µg/mL (≈ 5.59 µM)
- MIC Staphylococcus aureus (GC 4545) (Staphylococcus sp.): 8 µg/mL (≈ 5.59 µM)
- MIC Staphylococcus aureus (GC 1131) (Staphylococcus sp.; inoculum 5×10^5 CFU/mL, strain GC 1131): 8 µg/mL (≈ 5.59 µM)
- MIC Staphylococcus aureus (ATCC 29213) (Staphylococcus sp.; strain ATCC 29213): 8 µg/mL (≈ 5.59 µM)
- MIC Staphylococcus aureus (GC 3051) (Staphylococcus sp.; strain GC 3051): 8 µg/mL (≈ 5.59 µM)
- MIC Staphylococcus aureus (GC 3053) (Staphylococcus sp.; strain GC 3053): 8 µg/mL (≈ 5.59 µM)
- MIC Staphylococcus aureus (GC 4541) (Staphylococcus sp.; strain GC 4541): 8 µg/mL (≈ 5.59 µM)
- MIC Staphylococcus aureus (GC 4542) (Staphylococcus sp.; strain GC 4542): 8 µg/mL (≈ 5.59 µM)
- MIC Staphylococcus aureus-SMITH (GC 4543) (Staphylococcus sp.; strain GC 4543): 8 µg/mL (≈ 5.59 µM)
- MIC Staphylococcus aureus (GC 4544) (Staphylococcus sp.; strain GC 4544): 8 µg/mL (≈ 5.59 µM)
- MIC Staphylococcus aureus (GC 4545) (Staphylococcus sp.; strain GC 4545): 8 µg/mL (≈ 5.59 µM)
- MIC Coagulase Negative Staphylococcus (GC 4547) (Staphylococcus sp.; strain GC 4547): 8 µg/mL (≈ 5.59 µM)
- MIC Coagulase Negative Staphylococcus (GC 4548) (Staphylococcus sp.; strain GC 4548): 8 µg/mL (≈ 5.59 µM)
- MIC Coagulase Negative Staphylococcus (GC 4549) (Staphylococcus sp.; strain GC 4549): 8 µg/mL (≈ 5.59 µM)
- MIC Coagulase Negative Staphylococcus (GC 4551) (Staphylococcus sp.; strain GC 4551): 8 µg/mL (≈ 5.59 µM)
- MIC Coagulase Negative Staphylococcus (GC 6257) (Staphylococcus sp.; strain GC 6257): 8 µg/mL (≈ 5.59 µM)
- MIC Staphylococcus aureus-SMITH (GC 4543) (Staphylococcus sp.; strain SMITH GC 4543): 8 µg/mL (≈ 5.59 µM)
- MIC Streptococcus agalactiae (GC 4564) (Streptococcus sp.; Streptococcus agalactiae (GC 4564)): 1 µg/mL (≈ 0.699 µM)
- MIC Streptococcus pneumoniae (ATCC 6301) (Streptococcus sp.; Streptococcus pneumoniae (ATCC 6301)): <0.06 µg/mL
- MIC Streptococcus pneumoniae (GC 1894) (Streptococcus sp.; Streptococcus pneumoniae (GC 1894)): <0.06 µg/mL
- MIC Streptococcus pneumoniae (GC 4565) (Streptococcus sp.; Streptococcus pneumoniae (GC 4565)): <0.06 µg/mL
- MIC Streptococcus pyogenes (GC 4563) (Streptococcus sp.; Streptococcus pyogenes (GC 4563)): 0.12 µg/mL (≈ 0.0838 µM)
- MIC Streptococcus pneumoniae (ATCC 6301) (Streptococcus sp.; strain ATCC 6301): <0.06 µg/mL
- MIC Streptococcus pneumoniae (GC 1894) (Streptococcus sp.; strain GC 1894): <0.06 µg/mL
- MIC Streptococcus pyogenes (GC 4563) (Streptococcus sp.; strain GC 4563): 0.12 µg/mL (≈ 0.0838 µM)
- MIC Streptococcus agalactiae (GC 4564) (Streptococcus sp.; strain GC 4564): 1 µg/mL (≈ 0.699 µM)
- MIC Streptococcus pneumoniae (GC 4565) (Streptococcus sp.; strain GC 4565): <0.06 µg/mL
Structure (SMILES): CC(C)=CCCC(C)CC1OCC2OC(OC3C(CO)OC(Oc4ccc(CC5NC(=O)C(C(C)c6ccccc6)NC(=O)CNC(=O)C(CO)NC(=O)C(C(O)C6CNC(=N)N6C6OC(CO)C(O)C(O)C6O)NC(=O)C(C(O)C6CNC(=N)N6)NC5=O)cc4)C(O)C3O)C(O)C(O)C2O1 (stereo not shown) [Example 126]
- MIC Staphylococcus haemolyticus (GC 4546) (Staphylococcus sp.; strain GC 4546): 8 µg/mL (≈ 5.59 µM)

— patent US6914045B2, “Glycopeptide antibiotics” (Wyeth Holdings Corporation, priority 2001, dated 2005)
